# Source: patent US20090270443A1, “1-AMINO IMIDAZO-CONTAINING COMPOUNDS AND METHODS” (priority 2004, published 2009)
row,melting point,Compound
1,242 to 244 °C,"Cc1nc(N)c2nc(C)n(NC3CCCCC3)c2c1C [Example 28, N^1-Cyclohexyl-2,6,7-trimethyl-1H-imidazo[4,5-c]pyridine-1,4-diamine]"
2,130 to 132 °C,"CCOCc1nc2c(N)nc(C)c(C)c2n1NC1CCCC1 [Example 46, N^1-Cyclopentyl-2-ethoxymethyl-6,7-dimethyl-1H-imidazo[4,5-c]pyridine-1,4-diamine]"
3,110 to 120 °C,"CCOCc1nc2c(N)nc(C)c(C)c2n1NC(C)C [Example 1, 2-(Ethoxymethyl)-N^1-isopropyl-6,7-dimethyl-1H-imidazo[4,5-c]pyridine-1,4-diamine]"
4,177 to 179 °C,"CCCc1nc2c(N)nc(C)c(C)c2n1NC1CCCCC1 [Example 33, N^1-Cyclohexyl-6,7-dimethyl-2-propyl-1H-imidazo[4,5-c]pyridine-1,4-diamine]"
5,160 to 162 °C,"CCCCc1nc2c(N)nc(C)c(C)c2n1NC1CCCCC1 [Example 31, 2-Butyl-N^1-cyclohexyl-6,7-dimethyl-1H-imidazo[4,5-c]pyridine-1,4-diamine]"
6,254 to 256 °C,"Cc1nc(N)c2nc(CO)n(NC3CCCC3)c2c1C [Example 47, (4-Amino-1-cyclopentylamino-6,7-dimethyl-1H-imidazo[4,5-c]pyridin-2-yl)methanol]"
7,120 to 122 °C,"CCOCc1nc2c(N)nc(C)c(C)c2n1NC1CCOCC1 [Example 25, 2-Ethoxymethyl-6,7-dimethyl-N^1-(tetrahydropyran-4-yl)-1H-imidazo[4,5-c]pyridine-1,4-diamine]"
8,110 to 120 °C,"COCCc1nc2c(N)nc(C)c(C)c2n1NC1CCOCC1 [Example 51, 2-(2-Methoxyethyl)-6,7-dimethyl-N^1-(tetrahydropyran-4-yl)-1H-imidazo[4,5-c]pyridine-1,4-diamine]"
9,190 to 192 °C,"CCc1nc2c(N)nc(C)c(C)c2n1NC1CCCCC1 [Example 29, N^1-Cyclohexyl-2-ethyl-6,7-dimethyl-1H-imidazo[4,5-c]pyridine-1,4-diamine]"
10,> 250 °C,"Cc1nc(N)c2nc(CO)n(NC3CCCCC3)c2c1C [Example 18, (4-Amino-1-cyclohexylamino-6,7-dimethyl-1H-imidazo[4,5-c]pyridin-2-yl)methanol]"

# More lines, now with the values behind:
row,Compound,melting point
1,"CCOCc1nc2c(N)nc(C)c(C)c2n1NCc1ccccc1 [Example 21, N^1-Benzyl-2-ethoxymethyl-6,7-dimethyl-1H-imidazo[4,5-c]pyridine-1,4-diamine]",149 to 151 °C
2,CCOCc1nc2c(N)nc(C)c(C)c2n1NCCCNC(=O)OCC [Example 49],148 to 150 °C
3,"CCOCc1nc2c(N)nc(C)c(C)c2n1NCc1ccc(Cl)c(Cl)c1 [Example 45, N^1-(3,4-Dichlorobenzyl)-2-ethoxymethyl-6,7-dimethyl-1H-imidazo[4,5-c]pyridine-1,4-diamine]",186 to 188 °C
4,"OCc1nc2cnc3cccnc3c2n1NC1CCOCC1 [Example 38, [1-(Tetrahydro-2H-pyran-4-yl)amino-1H-imidazo[4,5-c][1,5]naphthyridin-2-yl]methanol]",203 to 205 °C
5,"Cc1nc(N)c2ncn(N(C)C)c2c1C [Example 10, N^1,N^1,6,7-Tetramethyl-1H-imidazo[4,5-c]pyridine-1,4-diamine]",205 to 207 °C
6,"CCOCc1nc2c(N)nc(C)c(C)c2n1NCCCNC(=O)C1CCCCC1 [Example 14, N-{3-[(4-Amino-2-ethoxymethyl-6,7-dimethyl-1H-imidazo[4,5-c]pyridin-1-yl)amino]propyl}cyclohexanecarboxamide]",166 to 168 °C
7,"Cc1nc(N)c2nc(CO)n(NCc3ccccc3)c2c1C [Example 22, (4-Amino-1-benzylamino-6,7-dimethyl-1H-imidazo[4,5-c]pyridin-2-yl)methanol]",> 250 °C
8,"CCOCc1nc2c(N)nc3cccnc3c2n1NC(C)C [Example 4, 2-(Ethoxymethyl)-N^1-isopropyl-1H-imidazo[4,5-c][1,5]naphthyridine-1,4-diamine]",150 to 152 °C
